Reference: publication PMC11999338, “Factor XI localization in human deep venous thrombus and function of activated factor XI on venous thrombus formation and hemostasis” (Research and Practice in Thrombosis and Haemostasis, 2025)
“Also recorded” adds a separate entry of the source.

Columns and labels:
[1] = test system: thrombi on the collagen surface; assay: Ex vivo rabbit blood perfusion in flow chamber on collagen surface (70/s); assay type: cell-based; details: rabbit blood 75 minutes after oral ONO-1600586 50 mg/kg or rivaroxaban 15 mg/kg, shear rate 70/s
Description: Blood from rabbits 75 minutes postadministration of a solvent as a control (n = 5), a FXIa inhibitor (ONO-1600586, 50 mg/kg, n = 5), or a FXa inhibitor (rivaroxaban, 15 mg/kg, n = 5) was collected using 21-gauge needles into plastic syringes containing corn trypsin inhibitor (Molecular Innovations; final concentration 20 μg/mL) and a specific FXa inhibitor, Arixtra (Organon Sanofi-Synthelabo, final concentration 6 μg/mL). Anticoagulated whole blood was stored at room temperature and used for perfusion studies within 1 hour of collection. Next, mepacrine (quinacrine dihydrochloride, Sigma-Aldrich, final concentration 5 μM) was added to the blood before perfusion for platelet labeling, which enables the visualization of platelet-surface interaction through epifluorescence videomicroscopy. Collagen from the horse tendon (Collagen Reagent HORM, Takeda Pharmaceutical, 20 μg/mL) was immobilized on glass coverslips (24 × 50 mm) in parallel-plate flow chambers, as previously described. Blood samples were perfused through the chamber using a syringe pump (KDS100, KD Scientific Inc) at a constant flow rate (15 mL/h) to achieve wall shear rates of 70/s. Platelets interacting with the immobilized collagen were visualized using an inverted stage epifluorescence microscope (IX71, OLYMPUS). Images were captured at 3, 6, and 9 minutes after perfusion with a photosensitive color CCD camera (DP70, Olympus), and surface covering areas were semiquantified using a morphometric analysis system (WinROOF, Mitani).
After perfusion, coverslips were immediately fixed in 95% alcohol for 1 hour at room temperature, stained using antibodies for fibrin (Millipore), and faintly counterstained with Meyer’s hematoxylin. […] Finally, the number of attached cells with multilobulated nuclei was counted as the neutrophil number in 5 fields under a 20× objective lens and expressed as the number of neutrophils per mm^2.

[2] = test system: human thrombus formation in vitro; assay: In vitro human blood perfusion in flow chamber on collagen and tissue factor (70/s); assay type: cell-based; details: rivaroxaban 1 μmol/L, low-shear 70/s
Description: The Ethics Committee of the University of Miyazaki approved this study (approval number O-1160). The Collagen Reagent HORM (Takeda Pharmaceutical, 20 μg/mL) and recombinant tissue factor (Dade Innovin, ×1000, Siemens) were immobilized on glass coverslips (24 × 50 mm) in parallel-plate flow chambers, as described above. Blood from healthy human volunteers who were not on medication was collected using 21-gauge needles into plastic syringes containing a corn trypsin inhibitor (Molecular Innovations, final concentration 10 μg/mL). Anticoagulated whole blood was used for the perfusion. The solvent (n = 10), FXIa inhibitor (ONO-1600586, 3 μmol/L, n = 10) or FXa inhibitor (rivaroxaban, 1 μmol/L, n = 10), and mepacrine (Sigma-Aldrich, final concentration 5 μM) were added to the blood before perfusion. Blood samples were perfused through the chamber using a syringe pump (KDS100, KD Scientific Inc) at a constant flow rate (15 mL/h) to achieve wall shear rates of 70/s. Finally, the surface covering area, fibrin-immunopositive area, and the number of neutrophils were analyzed as described above.
The pre-and postperfused blood samples were collected into a tube containing 3.8% sodium citrate anticoagulant (9:1 v/v). Plasma samples were centrifuged at 1500 × g for 15 minutes at room temperature. FXIa and FXa activities were measured using an automatic blood coagulation analyzer (ACL-TOP, Werfen), as well as FXI-deficient plasma (HemosIL Factor XI Deficient Plasma and HemosIL SynthASil APTT, Werfen) and FX-deficient plasma (HemosIL Factor X Deficient Plasma and HemosIL RecombiPlasTin, Werfen). The plasma levels of prothrombin fragment 1 + 2 were measured using an enzyme-linked immunosorbent assay (Enzygnost F1 + 2 Monoclonal, Siemens).

PT and aPTT = PT and aPTT after oral administration in rabbit stasis model; assay type: in vivo; details: rabbits, stasis model, 1, 3, and 7 hours; ONO-1600586 50 mg/mL, rivaroxaban 15 mg/mL (so in the source)
Description: The protocols of venous thrombosis by stasis were as follows (Supplementary Figure 4). First, fasting rabbits were orally administered a solvent as a control (n = 8), a FXIa inhibitor (ONO-1600586, 50 mg/kg, n = 8), or a FXa inhibitor (rivaroxaban, 15 mg/kg, n = 8) using a Nelaton catheter of 5 mm diameter (IZUMO Health Co, Ltd) 60 minutes before thrombus formation. The process of thrombus formation was performed under general anesthesia through the subcutaneous injection of a mixture of medetomidine hydrochloride (0.08 mg/kg body weight), butorphanol tartrate (0.2 mg/kg), and midazolam (0.4 mg/kg).
Blood samples were collected from the central ear arteries of the rabbits before and 1, 3, and 7 hours after administering the solvent, ONO-1600586, and rivaroxaban in 3.8% sodium citrate (9:1 v/v) using 21-gauge needles. Plasma samples were centrifuged at 1500 × g for 15 minutes at room temperature. PT and aPTT were measured using a coagulation timer (KC-1 Delta, Tcoag Ireland Ltd) and reagents (aPTT: ACTIN, Siemens; PT: THROMBOCHECK PT+, Sysmex). Data are expressed as a ratio of PT and aPTT to those before administration.

## O=C(NC[C@H]1CN(c2ccc(N3CCOCC3=O)cc2)C(=O)O1)c1ccc(Cl)s1 [rivaroxaban]
[1]
  fibrin formation (fibrin-immunopositive area) in the flow chamber: markedly decreased; also recorded: Absence or little fibrin formation
  neutrophil attachment on the thrombus: did not affect
[1]; 3, 6, 9 minutes
  surface covering areas: did not differ
[2]; ONO-1600586 3 μM
  fibrin formation in the flow chamber: markedly decreased
[2]; ONO-1600586 3 μmol/L
  leukocyte adhesion: did not affect
  plasma levels of prothrombin fragment 1 + 2 after perfusion: reduced
  platelet covering area: did not affect
[2]
  FXa activity in the plasma after perfusion: reduced
PT and aPTT
  PT after oral administration: prolonged
  aPTT after oral administration: prolonged
